From patent US20030224522A1, “Methods for delivering nucleic acid molecules into cells and assessment thereof” (priority 2002, published 2003)

What was measured:
[1] = tested on: CHO-KI cells; assay: Ultrasound mediated transfection of GFP chromosomes with Saint-2; format: cell-based
Method: CHO-KI cells were grown at 37°, 5% CO2, in CHO-S-SFM 2 Medium, (Gibco BRL, Paisley, UK). Between 2×10^5 and 5×10^5 cells were plated onto sterile glass slides in a 12 well plate 24 h before usage.
Transfection of the cells was performed as follows. The medium was removed from the cells, and the cells were washed twice with HBSS (Hanks balanced salt solution without Phenol Red (Gibco BRL, UK)) at 37° C. Then 500 μl HBSS at 37° C. was added per well, followed by 10 μl of the freshly prepared vesicle solution (prepared in Example 2) to yield a final concentration of 23.3 nmol/ml.
Alternatively, the medium was removed from the cells, and the cells were washed twice with HBSS. 500 μl HBSS/lipid solution at 37° C. was added to each well. The HBSS/lipid solution was prepared by adding 1 μl ethanolic lipid solution (prepared as described above) to 500 μHBSS under vigorous vortexing. The plates were then sealed with parafilm tape and shaken gently at room temperature for 30 min. After incubation, ultrasound was applied at an output energy of 0.5 Watt/cm^2 for 60 sec through the bottom of the plate to the cells. The ultrasound was mediated by an ultrasound gel (Aquasonic 100, Parker, N.J.) between transducer and plate. The ultrasound was applied with an ImaRx Sonoporator 100. Immediately after applying ultrasound one GFP chromosome per seeded cell (2×10^5-5×10^5) (prepared in Example 1) was added. The plate was then sealed again and shaken gently for 1 h at room temperature. After the incubation 1 ml medium (CHO—S—SFM 2 with 10% Fetal Calf Serum, 10000 μg/ml Penicillin and 10000 μg/ml Streptomycin Gibco BRL, Paisley, UK) was added to each well and the cells were incubated for 24 h at 37° C. The cells were then washed with medium and 1 ml medium was added and the cells were incubated at 37° for another 24 h. Detection of expressed genes was then assayed by microscopy or detection of the transferred chromosome by FISH analysis.
The negative control was performed in the same way, but with no chromosomes added to the cells.

[2] = tested on: Hep-G2 cells; assay: as above; format: cell-based, human; conditions: of the cells remaining on the slide
Method: Hep-G2 cells were grown at 37° C., 5% CO2, in DMEM with 4500 mg/l Glucose, with Pyridoxine/HCL, 10% Fetal Calf Serum, 10000 μg/ml Streptomycin and 1000 μg/ml Penicillin. Between 2×10^5 and 5×10^5 cells were plated onto sterile glass slides in a 12 wells plate 24 hours before usage.
Cells were transfected with GFP chromosomes using the procedure of Example 6A except that the CHO—KI medium was replaced with Hep-G2 medium.

[3] = tested on: A9 cells; assay: as above; format: cell-based, murine; conditions: of the cells remaining on the glass
Method: A9 cells were grown at 37° C., 5% CO2, in DMEM with 4500 mg/l Glucose, with Pyridoxine/HCL, 10% Fetal Calf Serum, 10000 μg/ml Streptomycin and 10000 μg/ml Penicillin (GIBCO BRL, Paisley, UK). Between 2×10^5 and 5×10^5 cells were plated onto sterile glass slides in a 12 well plate 24 h before usage.
Cells were transfected with GFP chromosomes using the procedure of Example 6A except that CHO-KI medium was replaced with A9 medium.

[4] = tested on: LM(tk−) cells; assay: Nocodazole cell synchronization, cell cycle kinetics by propidium iodide flow cytometry; format: cell-based, murine
Method: To determine the optimum blocking concentration of nocodazole, nocodazole concentrations were titrated against LM(tk−) cells to generate a dose response. Timing of the optimal blocking concentration (100 ng/ml) was then assessed over 0-1 6 hours using flow cytometry. To determine the cell cycle kinetics of LM(tk−) cell populations at different time points, cells were stained with propidium iodide (PI) at a concentration of […] for 1×10^6 cells and analyzed with a FACS Vantage SE (Becton Dickinson Immunocytometry Systems, San Jose, Calif.) equiped with an argon laser tuned to 488 nm at 200 mW. Whole intact cells were gated on forward scatter (FSC, representing cell size) versus side scatter (SSC, representing internal granularity) and PI emission was detected with a 630/22 filter. A list mode file was generated with a minimum of 20,000 whole intact cells analyzed. The proportion of cells in G0-G1, S and G2-M were documented for each time point. Optimum cell-cycle arrest at the G2/M boundary was achieved by incubating cells with 100 ng/ml nocodazole in serum containing DMEM medium for 6 hours. After 6 hours of nocodazole exposure at 100 ng/ml, approximately 20% of cells were in S phase and 50% of cells were at G2/M. Cell cycle kinetics were again monitored by flow cytometry upon release of the nocodazole block and at frequent intervals over a 16 hour period.

[5] = tested on: LM(tk−) cells; assay: ACes transfection at time points after release of nocodazole block, hygromycin selection and FISH; format: cell-based, murine; conditions: nocodazole synchronized colonies (20/47), LipofectAMINE PLUS or Superfect; asynchronous control colonies 4% (2/49)
Method: Cells were plated at 7.5×10^5 cells per well of a 6-well plate 24 hours prior to nocodazole treatment. The cells were incubated with nocodazole for 6 hours. After the 6 hour incubation, wells were hosed with medium to dislodge the suspension fraction of cells. Nocodazole containing medium was removed and the wells were washed with fresh medium. The wash medium was aspirated and fresh medium was replaced in the wells. To determine the optimum time point for transfection, different cell samples were transfected at different time points after release of the nocodazole block. The time points were 0, 2, 4, 6, 8, 12, and 16 hours after release of the nocodazole block. Following transfer, the cells were plated and transfectants identified using hygromycin selection. Highest colony formations were achieved when transfection occurred 2-4 hours post nocodazole block. At these time points, cell population distribution included approximately 10% of cells in G0/G1, 20% in S, and 70% in G2/M. Transfectants were analyzed using FISH to determine the quality of the transferred material. […]
Cells were synchronized by nocodazole treatment (100 ng/ml final concentration) for 6 hours prior to transfection. […] Twenty-four hours post-transfection the cells are counted (Coulter counter) and a small fraction are plated for a modified toxicity assay. […]

[6] = tested on: LM(tk−) cells; assay: Thymidine cell synchronization, cell cycle kinetics by flow cytometry; format: cell-based, murine; conditions: 16 hours incubation, dose range 1-20 mM tested
Method: To determine the optimum parameters for cell cycle synchronization, thymidine was administered to cell samples in a dose range of 1-20 mM. Samples were analyzed by flow cytometry to determine the cell cycle kinetics of LM(tk−) cell populations at frequent intervals over a 16 hour time period. Optimum synchronization of cells in G0/G1 was achieved by incubating LM(tk−) cells with 10 mM thymidine in serum containing DMEM medium for 16 hours. The thymidine block was released by washing the cells twice in serum-free medium and replacing the medium with complete medium containing 24 μM 2′-deoxycytidine 5′ mono-phosophate (dCMP; Sigma D-7750, St. Louis, Mo.). Cell cycle kinetics were again monitored by flow cytometry upon release of the thymidine block and at frequent intervals over a 16 hour period.

[7] = 2-4 hours post nocodazole block
[8] = after 6 hours of nocodazole exposure at 100 ng/ml

CCCCCCCCC=CCCCCCCCCC(CCCCCCCCC=CCCCCCCCC)c1cc[n+](C)cc1.[Cl-] (stereo not shown) [Saint-2, 1-methyl-4-(1-octadec-9-enyl-nonadec-10-enylenyl) pyridinium chloride]
GFP positive cells, of original population ([1]; after 48 hours): 3%
remaining cells positive for green fluorescent protein expression ([1]; after 48 hours, of the cells remaining on the slide): 10%
cells containing an intact artificial chromosome (FISH) ([1]; after culturing for two weeks): 1.4%
remaining cells positive for green fluorescent protein expression [2]: 80%
remaining cells positive for green fluorescent protein expression [3]: 50%

COC(=O)Nc1nc2ccc(C(=O)c3cccs3)cc2[nH]1 [nocodazole]
cells in G0/G1 [4, 7]: approximately 10%
cells in G2/M [4, 7]: ~70%
cells in S [4, 7]: ~20%
optimal blocking concentration for cell-cycle arrest at the G2/M boundary ([4]; 6 hours incubation, serum containing DMEM): 100 ng/mL
cells at G2/M [4, 8]: ~50%
cells in S phase [4, 8]: approximately 20%
percentage of colonies where at least 50% of the cells had an intact ACes (FISH) [5]: 43%

Cc1cn([C@H]2C[C@H](O)[C@@H](CO)O2)c(=O)[nH]c1=O [thymidine]
concentration for optimum synchronization of cells in G0/G1 [6]: 10 mM
